From patent US20230227449A1, “AMIDOPYRIMIDONE DERIVATIVES” (Hoffmann-La Roche Inc., priority 2020, published 2023)

Target: Recombinant human Mat2a (Homo sapiens, UniProt P31153)
Assay: Determination of Mat2A activity (384 well absorbance-based assay, Biomol Green)
Type: biochemical
Conditions: 12.5 nM Mat2A, 100 μM ATP and Methionine, 2% DMSO, 120 minutes at RT, absorbance at 635 nm
Description: Determination of Mat2A activity
Measurement of Mat2A inhibition is performed in 384 well format absorbance-based assay. Recombinant human Mat2a (12.5 nM) and serial diluted compounds in DMSO (range of concentrations from […] to 508 pM) or controls (DMSO) are incubated for 15 minutes at room temperature (RT) in assay buffer containing 50 mM HEPES pH 7.5, 50 mM KCl, 50 mM MgCl2, 0.01% Tween 20 and 10 mM DTT. The reaction is initiated by the addition of the combined substrates ATP and Methionine, each at a final concentration of 100 μM. Final assay condition are 12.5 nM Mat2A, 100 μM ATP and Methionine Substrates and 2% DMSO. After 120 minutes of incubation at RT, the reaction is stopped by the addition of Biomol Green. The absorbance signal is measured at λ=635 nm with a multiplate reader (BMG Pherastar reader or equivalent) after 30 min of equilibration at RT.

Sequence of Recombinant human Mat2a (P31153 whole entry): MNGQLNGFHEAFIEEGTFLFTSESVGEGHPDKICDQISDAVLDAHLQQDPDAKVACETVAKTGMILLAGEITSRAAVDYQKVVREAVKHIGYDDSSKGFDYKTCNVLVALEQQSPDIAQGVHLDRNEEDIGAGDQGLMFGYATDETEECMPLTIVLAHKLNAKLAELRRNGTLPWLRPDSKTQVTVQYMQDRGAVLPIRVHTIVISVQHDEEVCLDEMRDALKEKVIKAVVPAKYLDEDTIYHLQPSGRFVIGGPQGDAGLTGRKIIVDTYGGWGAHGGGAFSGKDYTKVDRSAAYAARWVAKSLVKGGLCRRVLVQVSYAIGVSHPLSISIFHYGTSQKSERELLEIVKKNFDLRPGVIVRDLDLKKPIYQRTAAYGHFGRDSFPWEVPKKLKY

IC50 | SMILES
18 nM | Cc1ncccc1-n1c(=O)nc(N)c2ccc([C@@H]3C[C@H]3C)nc21 (racemic) [Example 23, 4-amino-7-((1RS,2RS)-2-methylcyclopropyl)-1-(2-methylpyridin-3-yl)pyrido[2,3-d]pyrimidin-2(1H)-one]
13 nM | C[C@H]1OCCC[C@@H]1n1c(=O)nc(N)c2ccc(C3CC3)nc21 [Example 118, 4-amino-7-cyclopropyl-1-((2R,3S)-2-methyltetrahydro-2H-pyran-3-yl)pyrido[2,3-d]pyrimidin-2 (1H)-one]
< 13 nM | Cc1ncccc1-n1c(=O)nc(N)c2ccc(C3CCC3)nc21 [Example 53, 4-amino-7-cyclobutyl-1-(2-methyl-3-pyridyl)pyrido[2,3-d]pyrimidin-2-one]
13 nM | Cc1ncsc1-n1c(=O)nc(N)c2ccc(N3C4CCC3CC4)nc21 [Example 90, 4-amino-7-(7-azabicyclo[2.2.1]heptan-7-yl)-1-(4-methylthiazol-5-yl)pyrido[2,3-d]pyrimidin-2-one]
< 13 nM | Cc1ncccc1-n1c(=O)nc(N)c2ccc(C(F)(F)F)cc21 [Example 29, 4-amino-1-(2-methylpyridin-3-yl)-7-(trifluoromethyl)quinazolin-2-one]
< 13 nM | Nc1nc(=O)n(-c2ccccc2Cl)c2nc(C3CC3)ccc12 [Example 64, 4-amino-1-(2-chlorophenyl)-7-cyclopropylpyrido[2,3-d]pyrimidin-2-one]
20 nM | Cc1ccccc1-n1c(=O)nc(N)c2ccc(Cl)nc21 [Example 62, 4-amino-7-chloro-1-(o-tolyl)pyrido[2,3-d]pyrimidin-2(1H)-one]
19 nM | Cc1c(F)cccc1-n1c(=O)nc(N)c2ccc(OC(F)(F)F)cc21 [Example 159, 4-amino-1-(3-fluoro-2-methylphenyl)-7-(trifluoromethoxy)quinazolin-2-one]
< 13 nM | Nc1nc(=O)n(-c2ccccc2OC(F)(F)F)c2nc(C3CC3)ccc12 [Example 110, 4-amino-7-cyclopropyl-1-[2-(trifluoromethoxy)phenyl]pyrido[2,3-d]pyrimidin-2-one]
< 13 nM | Cc1c(C#N)cccc1-n1c(=O)nc(N)c2ccc(C3CC3)nc21 (single isomer, unassigned) [Example 145, (+)-3-(4-amino-7-cyclopropyl-2-oxopyrido[2,3-d]pyrimidin-1 (2H)-yl)-2-methylbenzonitrile]
45 nM | Cc1ncccc1-n1c(=O)nc(N)c2ccc(C3=COCC3)nc21 [Example 41, 4-amino-7-(4,5-dihydrofuran-3-yl)-1-(2-methylpyridin-3-yl)pyrido[2,3-d]pyrimidin-2 (1H)-one]
99 nM | C[C@H](c1cnco1)n1c(=O)nc(N)c2ccc(C3CC3)nc21 [Example 75, 4-amino-7-cyclopropyl-1-(1-(oxazol-5-yl)ethyl)pyrido[2,3-d]pyrimidin-2(1H)-one]
74 nM | Cc1ccccc1-n1c(=O)nc(N)c2c(C(N)=O)cc(C3CC3)nc21 [Example 94, 4-amino-7-cyclopropyl-2-oxo-1-(o-tolyl)-1,2-dihydropyrido[2,3-d]pyrimidine-5-carboxamide]
20 nM | COc1nccc(F)c1-n1c(=O)nc(N)c2ccc(C3CC3)nc21 [Example 60, 4-amino-7-cyclopropyl-1-(4-fluoro-2-methoxypyridin-3-yl)pyrido[2,3-d]pyrimidin-2(1H)-one]
150 nM | Cn1nccc1-n1c(=O)nc(N)c2ccc(N3C[C@H]4CC[C@@H]3C4)nc21 (racemic) [Example 57, 4-amino-7-[(1SR,4RS)-3-azabicyclo[2.2.1]heptan-3-yl]-1-(2-methylpyrazol-3-yl)pyrido[2,3-d]pyrimidin-2-one]
72 nM | Nc1nc(=O)n(-c2ccccc2Cl)c2nc(C3CC3)ccc12 (single isomer, unassigned) [Example 115, (−)-4-amino-1-(2-chlorophenyl)-7-cyclopropylpyrido[2,3-d]pyrimidin-2 (1H)-one]
17 nM | Nc1nc(=O)n([C@H]2CCC[C@H]2O)c2nc(C3CC3)ccc12 (racemic) [Example 24, 4-amino-7-cyclopropyl-1-((1SR,2RS)-2-hydroxycyclopentyl)pyrido[2,3-d]pyrimidin-2(1H)-one]
15 nM | Nc1nc(=O)n(-c2cccc3c2OCC3)c2nc(C3CC3)ccc12 [Example 63, 4-amino-7-cyclopropyl-1-(2,3-dihydrobenzofuran-7-yl)pyrido[2,3-d]pyrimidin-2(1H)-one]
22 nM | Cc1ccccc1-n1c(=O)nc(N)c2ccc(C(C)(C)C)nc21 [Example 3, 4-amino-7-(tert-butyl)-1-(o-tolyl)pyrido[2,3-d]pyrimidin-2(1H)-one]
14 nM | Cc1ccccc1-n1c(=O)nc(N)c2cc(OC(F)F)c(C3CC3)nc21 [Example 113, 4-amino-7-cyclopropyl-6-(difluoromethoxy)-1-(o-tolyl)pyrido[2,3-d]pyrimidin-2-one]

IC50 | SMILES
< 13 nM | Cc1ncccc1-n1c(=O)nc(N)c2ccc(C3CC3)cc21 [Example 86, 4-amino-7-cyclopropyl-1-(2-methylpyridin-3-yl)quinazolin-2 (1H)-one]
15 nM | Nc1nc(=O)n(-c2cccc3c2CCN3)c2nc(C3CC3)ccc12 [Example 157, 4-amino-7-cyclopropyl-1-(2,3-dihydro-1H-indol-4-yl)pyrido[2,3-d]pyrimidin-2-one]
31 nM | Nc1nc(=O)n(-c2cccc(OC(F)(F)F)n2)c2nc(C3CC3)ccc12 [Example 163, 4-amino-7-cyclopropyl-1-[6-(trifluoromethoxy)pyridin-2-yl]pyrido[2,3-d]pyrimidin-2-one]
31 nM | COc1ccccc1-n1c(=O)nc(N)c2ccc(-c3ccccc3)nc21 [Example 4, 4-amino-1-(2-methoxyphenyl)-7-phenylpyrido[2,3-d]pyrimidin-2(1H)-one]
78 nM | Nc1nc(=O)n(-c2cccc(F)c2Cl)c2nc(C3CC3)ccc12 (single isomer, unassigned) [Example 117, (−)-4-amino-1-(2-chloro-3-fluorophenyl)-7-cyclopropylpyrido[2,3-d]pyrimidin-2 (1H)-one]
20 nM | Nc1nc(=O)n(-c2cc(F)ccc2F)c2nc(C3CC3)ccc12 [Example 154, 4-amino-7-cyclopropyl-1-(2,5-difluorophenyl)pyrido[2,3-d]pyrimidin-2 (1H)-one]
13 nM | COc1ncccc1-n1c(=O)nc(N)c2cc(Cl)c(C3CC3)nc21 [Example 66, 4-amino-6-chloro-7-cyclopropyl-1-(2-methoxypyridin-3-yl)pyrido[2,3-d]pyrimidin-2(1H)-one]
< 13 nM | N#Cc1ncccc1-n1c(=O)nc(N)c2ccc(C3CC3)nc21 [Example 11, 3-(4-amino-7-cyclopropyl-2-oxopyrido[2,3-d]pyrimidin-1(2H)-yl)picolinonitrile]
< 13 nM | Cc1ncccc1-n1c(=O)nc(N)c2ccc(C3CCCC3)nc21 [Example 56, 4-amino-7-cyclopentyl-1-(2-methyl-3-pyridyl)pyrido[2,3-d]pyrimidin-2-one]
< 13 nM | Nc1nc(=O)n(-c2cccc(F)c2)c2nc(C3CC3)ccc12 [Example 80, 4-amino-7-cyclopropyl-1-(3-fluorophenyl)pyrido[2,3-d]pyrimidin-2(1H)-one]
14 nM | COc1cc(C(F)(F)F)cc2c1c(N)nc(=O)n2-c1cccnc1C [Example 102, 4-amino-5-methoxy-1-(2-methylpyridin-3-yl)-7-(trifluoromethyl)quinazolin-2 (1H)-one]
< 13 nM | Cc1c(F)cccc1-n1c(=O)nc(N)c2ccc(C3CC3)nc21 (single isomer, unassigned) [Example 103, (+)-4-amino-7-cyclopropyl-1-(3-fluoro-2-methylphenyl)pyrido[2,3-d]pyrimidin-2 (1H)-one]
18 nM | Cc1cc(F)ccc1-n1c(=O)nc(N)c2ccc(C3CC3)nc21 [Example 67, 4-amino-7-cyclopropyl-1-(4-fluoro-2-methylphenyl)pyrido[2,3-d]pyrimidin-2-one]
18 nM | Cc1ncccc1-n1c(=O)nc(N)c2ccc(OC3CC3)cc21 [Example 31, 4-amino-7-cyclopropyloxy-1-(2-methylpyridin-3-yl)quinazolin-2-one]
43 nM | Cc1ccccc1-n1c(=O)nc(N)c2cnc(C3CC3)cc21 [Example 52, 4-amino-7-cyclopropyl-1-(o-tolyl)pyrido[4,3-d]pyrimidin-2(1H)-one]
< 13 nM | Cc1ncncc1-n1c(=O)nc(N)c2ccc(C3CC3)nc21 [Example 42, 4-amino-7-cyclopropyl-1-(4-methylpyrimidin-5-yl)pyrido[2,3-d]pyrimidin-2(1H)-one]
14 nM | Nc1nc(=O)n(-c2cccc(Cl)c2)c2nc(C3CC3)ccc12 [Example 152, 4-amino-1-(3-chlorophenyl)-7-cyclopropylpyrido[2,3-d]pyrimidin-2 (1H)-one]
22 nM | C[C@@H]1OCC[C@H]1n1c(=O)nc(N)c2ccc(C3CC3)nc21 (racemic) [Example 30, 4-amino-7-cyclopropyl-1-[rac-(2RS,3SR)-2-methyloxolan-3-yl]pyrido[2,3-d]pyrimidin-2-one]
< 13 nM | COc1cccc(-n2c(=O)nc(N)c3ccc(C4CC4)nc32)n1 [Example 72, 4-amino-7-cyclopropyl-1-(6-methoxypyridin-2-yl)pyrido[2,3-d]pyrimidin-2(1H)-one]
< 13 nM | Cc1ncsc1-n1c(=O)nc(N)c2ccc(C3CC3)nc21 [Example 51, 4-amino-7-cyclopropyl-1-(4-methylthiazol-5-yl)pyrido[2,3-d]pyrimidin-2-one]
